# Data published in patent US20130131075A1, “NEW COMPOUNDS” (Boehringer Ingelheim International GmbH, priority 2009, published 2013).
# Biological target: T1, cynomolgus BK1-receptor (Macaca fascicularis, UniProt Q3BCU0)
# T1 construct: expressed in transfected cells; host or cells: CHO cells (homogenate)
# T1 sequence (Q3BCU0 1-352): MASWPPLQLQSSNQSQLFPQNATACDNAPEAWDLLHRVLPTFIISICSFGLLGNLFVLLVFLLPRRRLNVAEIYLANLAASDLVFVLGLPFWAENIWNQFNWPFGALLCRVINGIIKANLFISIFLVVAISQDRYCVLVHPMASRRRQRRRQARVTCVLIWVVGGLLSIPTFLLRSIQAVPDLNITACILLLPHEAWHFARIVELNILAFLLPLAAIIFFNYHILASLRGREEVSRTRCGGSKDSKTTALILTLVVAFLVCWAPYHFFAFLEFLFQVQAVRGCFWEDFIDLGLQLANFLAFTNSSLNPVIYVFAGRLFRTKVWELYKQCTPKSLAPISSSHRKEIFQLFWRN
# Test: cynoBK1-receptor binding assay
# Details: CHO cells expressing cynomolgus BK1-receptor, radioligand kallidine (DesArg10,Leu9)
# Procedure: Description of the Method of Binding the cynoBK1-Receptor
# CHO cells that express the cynomolgus BK1-receptor are cultivated in “HAM'S F-12 Medium”. The medium is removed from confluent cultures, the cells are washed with PBS buffer, scraped off or detached using Versene and isolated by centrifuging. Then the cells are homogenised in suspension, the homogenate is centrifuged and resuspended. After the protein content has been determined 200 μl of the homogenate (50 to 250 μg protein/assay) are incubated for 60-180 minutes at ambient temperature with 0.5 to 5.0 nM kallidine (DesArg10,Leu9), [3,4-Prolyl-3,43H(N)] and increasing concentrations of the test substance in a total volume of 250 μl. The incubation is stopped by rapid filtration through GF/B glass fibre filters that have been pre-treated with polyethyleneimine (0.3%). The radioactivity bound to the protein is measured with a TopCount NXT. The radioactivity bound in the presence of 1.0 μM kallidine (DesArg10) is defined as non-specific binding. The concentration binding curve may be analysed using computer-aided non-linear curve fitting to determine the corresponding Ki value for the test substance.
# Test results of the cynoBK1-receptor binding assay: […]
row,SMILES,Ki
1,Nc1cncc(C(=O)N[C@@]2(C(=O)NCc3ncc(Nc4ccc(F)cc4C(F)(F)F)cc3F)CCOC2)c1 [(156)],8.5 nM
2,CNc1cncc(C(=O)N[C@@]2(C(=O)NCc3ncc(Nc4ccc(Cl)cc4C(F)(F)F)cc3F)CCOC2)c1 [(319)],58 nM
3,COc1ncc(C(=O)N[C@@]2(C(=O)NCc3ccc(Nc4ccc(Cl)cc4C(F)(F)F)cc3)CCOC2)cn1 [(333)],89 nM
4,COc1ccc(C(=O)NC2(C(=O)NCc3ccc(Nc4ccc(Br)cc4C(F)(F)F)cn3)CC2)cn1 [(235)],489 nM
5,CCCNc1ccc(C(=O)NC2(C(=O)NCc3ccc(Nc4ccc(Cl)cc4C(F)(F)F)cn3)CC2)cn1 [(330)],35 nM
6,O=C(NC1(C(=O)NCc2ccc(Nc3ccc(Cl)cc3C(F)(F)F)cn2)CC1)c1cncc(O)c1 [(205)],17 nM
7,Cc1ncc(C(=O)NC2(C(=O)NCc3ccc(Nc4ccc(F)cc4C(F)(F)F)cc3F)CC2)cn1 [(283)],1.3 nM
8,Cc1ncc(C(=O)NC2(C(=O)NCc3ccc(Nc4ccc(F)cc4C(F)(F)F)cn3)CC2)s1 [(303)],82 nM
9,COc1cncc(C(=O)NC2(C(=O)NCc3ccc(Nc4ccc(F)cc4C(F)(F)F)cn3)CC2)c1 [(376)],61 nM
10,COc1ncc(C(=O)NC2(C(=O)NCc3ncc(Nc4c(F)cccc4C(F)(F)F)cc3F)CC2)cn1 [(129)],11 nM
11,COc1ncc(C(=O)NC2(C(=O)NCc3ccc(Nc4ccc(Cl)cc4C(F)(F)F)cn3)CC2)cn1 [(146)],7.6 nM
12,COC(=O)c1ccc(Nc2ccc(CNC(=O)C3(NC(=O)c4cncnc4)CC3)nc2)c(C(F)(F)F)c1 [(196)],> 500 nM
13,O=C(N[C@@]1(C(=O)NCc2ccc(Nc3ccc(F)cc3C(F)(F)F)cc2)CCOC1)c1cnc2cc[nH]c2c1 [(365)],376 nM
14,O=C(N[C@@]1(C(=O)NCc2ccc(Nc3ccc(F)cc3C(F)(F)F)cc2)CCOC1)c1cncs1 [(299)],222 nM
15,Cc1ncc(C(=O)NC2(C(=O)NCc3ncc(Nc4ccc(Cl)cc4C(F)(F)F)cc3C)CC2)cn1 [(360)],2.5 nM
16,O=C(N[C@@]1(C(=O)NCc2ncc(Nc3ccc(Cl)cc3C(F)(F)F)cc2F)CCOC1)c1cncnc1 [(242)],15 nM
17,Cc1ccc(Nc2ccc(CNC(=O)C3(NC(=O)c4cncnc4)CC3)nc2)c(Cl)c1 [(189)],> 500 nM
18,CN(C)c1cc(C(=O)NC2(C(=O)NCc3ccc(Nc4ccc(F)cc4C(F)(F)F)cn3)CC2)cnn1 [(252)],120 nM
19,Nc1cccc(C(=O)N[C@@]2(C(=O)NCc3ccc(Nc4ccccc4C(F)(F)F)cc3)CCOC2)n1 [(72)],416 nM
20,CC(NC(=O)C1(NC(=O)c2cncnc2)CC1)c1ccc(Nc2ccc(F)cc2C(F)(F)F)cn1 (stereo not drawn) [(45)],2 nM
21,O=C(O)c1ccc(Nc2ccc(CNC(=O)C3(NC(=O)c4cncnc4)CC3)nc2)c(C(F)(F)F)c1 [(195)],> 500 nM
22,Cc1ncc(C(=O)N[C@@]2(C(=O)NCc3ccc(Nc4ccc(F)cc4C(F)(F)F)cn3)CCOC2)cn1 [(307)],54 nM
23,Nc1cncc(C(=O)NC2(C(=O)NCc3ncc(Nc4c(F)cccc4C(F)(F)F)cc3F)CC2)c1 [(125)],12 nM
24,Nc1ccc(C(=O)NC2(C(=O)NCc3ccc(Nc4ccc(F)cc4C(F)(F)F)cn3)CC2)cn1 [(244)],8.4 nM
25,Nc1cncc(C(=O)N[C@@]2(C(=O)NCc3ccc(Nc4ccc(F)cc4C(F)(F)F)cc3)CCOC2)c1 [(214)],13 nM
26,Nc1ccc(C(=O)N[C@@]2(C(=O)NCc3ccc(Nc4ccc(F)cc4C(F)(F)F)cn3)CCOC2)cn1 [(349)],648 nM
27,O=C(N[C@@]1(C(=O)NCc2ccc(Nc3ccc(F)cc3C(F)(F)F)cc2)CCOC1)c1cncnc1 [(287)],11 nM

row,SMILES,Ki
1,CC(NC(=O)C1(NC(=O)c2cncnc2)CC1)c1ncc(Nc2ccc(Cl)cc2C(F)(F)F)cc1F (stereo not drawn) [(203)],1.9 nM
2,O=C(N[C@@]1(C(=O)NCc2ccc(Nc3ccccc3C(F)(F)F)cc2)CCOC1)c1ccnc(Cl)c1 [(61)],> 500 nM
3,O=C(NC1(C(=O)NCc2ccc(Nc3ccc(F)cc3C(F)(F)F)cn2)CC1)c1cncc(C(F)(F)F)c1 [(340)],28 nM
4,Nc1ccc(C(=O)N[C@@]2(C(=O)NCc3ccc(Nc4ccccc4C(F)(F)F)cc3)CCOC2)cn1 [(57)],77 nM
5,Nc1cncc(C(=O)NC2(C(=O)NCc3ccc(Nc4ccc(F)cc4C(F)(F)F)cn3)CC2)n1 [(144)],126 nM
6,CCNC(=O)NC1(C(=O)NCc2ccc(Nc3ccccc3C(F)(F)F)cc2)CC1 [(108)],135 nM
7,O=C(N[C@@]1(C(=O)NCc2ccc(Nc3c(F)cccc3C(F)(F)F)cn2)CCOC1)c1cncnc1 [(46)],290 nM
8,Nc1cncc(C(=O)N[C@@]2(C(=O)NCc3ncc(Nc4ccccc4C(F)(F)F)cc3F)CCOC2)c1 [(320)],19 nM
9,CCNc1ccc(C(=O)NC2(C(=O)NCc3ccc(Nc4ccc(Br)cc4C(F)(F)F)cn3)CC2)cn1 [(334)],20 nM
10,CC(NC(=O)C1(NC(=O)c2cncnc2)CC1)c1ncc(Nc2ccc(F)cc2C#N)cc1F (stereo not drawn) [(212)],8 nM
11,CNc1cncc(C(=O)NC2(C(=O)NCc3ccc(Nc4ccc(F)cc4C(F)(F)F)cn3)CC2)n1 [(168)],235 nM
12,N#Cc1ccc(Nc2ccc(CNC(=O)C3(NC(=O)c4cncnc4)CC3)nc2)c(C(F)(F)F)c1 [(197)],> 500 nM
13,Cc1ncc(C(=O)NC2(C(=O)NCc3ncc(Nc4ccccc4C(F)(F)F)cc3Cl)CC2)cn1 [(301)],1.1 nM
14,O=C(NC1(C(=O)NCc2ccc(Nc3ccc(Cl)cc3C(F)(F)F)cn2)CC1)c1cncc(F)c1 [(351)],24 nM
15,Cc1ncc(C(=O)NC2(C(=O)NCc3ccc(Nc4ccccc4C(F)(F)F)cc3F)CC2)cn1 [(294)],1.2 nM
16,O=C(N[C@@]1(C(=O)NCc2ncc(Nc3ccc(Cl)cc3C(F)(F)F)cc2Cl)CCOC1)c1cncc(O)c1 [(286)],36 nM
17,CC(C)Nc1ncc(C(=O)NC2(C(=O)NCc3ccc(Nc4ccc(Cl)cc4C(F)(F)F)cn3)CC2)cn1 [(382)],6.8 nM
18,CNc1cncc(C(=O)NC2(C(=O)NCc3ncc(Nc4c(F)cccc4C(F)(F)F)cc3F)CC2)c1 [(272)],35 nM
19,Nc1ccc(C(=O)N[C@@]2(C(=O)NCc3ncc(Nc4ccc(F)cc4C(F)(F)F)cc3F)CCOC2)cn1 [(348)],31 nM
20,COc1ccc(Nc2ccc(CNC(=O)C3(NC(=O)c4cncnc4)CC3)nc2)c(C(F)(F)F)c1 [(50)],0.7 nM
21,Nc1ccc(C(=O)N[C@@]2(C(=O)NCc3ncc(Nc4ccc(Cl)cc4C(F)(F)F)cc3Cl)CCOC2)cn1 [(297)],59 nM
22,COc1ncc(C(=O)NC2(C(=O)NCc3ccc(Nc4ccc(F)cc4C#N)cc3)CC2)cn1 [(182)],20 nM
23,COc1cncc(C(=O)NC2(C(=O)NCc3ccc(Nc4ccc(Cl)cc4C(F)(F)F)cn3)CC2)c1 [(313)],95 nM
24,CC(NC(=O)C1(NC(=O)c2cncc(N)c2)CC1)c1ccc(Nc2c(F)cccc2C(F)(F)F)cn1 (stereo not drawn) [(124)],33 nM
25,O=C(NC1(C(=O)NCc2ccc(Nc3ccc(Cl)cc3C(F)(F)F)cn2)CC1)c1cncc(C(F)(F)F)c1 [(354)],27 nM
26,O=C(N[C@@]1(C(=O)NCc2ncc(Nc3ccc(Cl)cc3C(F)(F)F)cc2F)CCOC1)c1cncc(O)c1 [(331)],66 nM
27,CCc1ncc(C(=O)NC2(C(=O)NCc3ccc(Nc4ccc(Cl)cc4C(F)(F)F)cn3)CC2)cn1 [(371)],6.1 nM

# Same assay, conditions: at 10 μgmol/L; CHO cells expressing cynomolgus BK1-receptor, radioligand kallidine (DesArg10,Leu9)
row,SMILES,inhibition at 10 µM
1,CC(NC(=O)C1(NC(=O)c2cncnc2)CC1)c1ccc(Nc2ccc(OC(F)F)cc2)cc1 (stereo not drawn) [(25)],86%
2,Nc1cncc(C(=O)N[C@@]2(C(=O)NCc3ncc(Nc4ccc(F)cc4C(F)(F)F)cc3F)CCOC2)c1 [(156)],107%
3,O=C(NC1(C(=O)NCc2ncc(Nc3ccc(F)cc3C(F)(F)F)cc2Cl)CC1)c1cncnc1 [(187)],100%
4,Cn1cnc(C(=O)NC2(C(=O)NCc3ccc(Nc4ccccc4C(F)(F)F)cc3)CC2)c1 [(17)],75%
5,COc1ncc(C(=O)NC2(C(=O)NCc3ncc(Nc4c(F)cccc4C(F)(F)F)cc3F)CC2)cn1 [(129)],107%
6,COc1ncc(C(=O)NC2(C(=O)NCc3ccc(Nc4ccc(Cl)cc4C(F)(F)F)cn3)CC2)cn1 [(146)],107%
7,COC(=O)c1ccc(Nc2ccc(CNC(=O)C3(NC(=O)c4cncnc4)CC3)nc2)c(C(F)(F)F)c1 [(196)],82%
8,Cc1nnc(C(=O)NC2(C(=O)NCc3ccc(Nc4ccccc4C(F)(F)F)cc3)CC2)o1 [(27)],104%
9,Cc1ccc(Nc2ccc(CNC(=O)C3(NC(=O)c4cncnc4)CC3)nc2)c(Cl)c1 [(189)],96%
10,Nc1cccc(C(=O)N[C@@]2(C(=O)NCc3ccc(Nc4ccccc4C(F)(F)F)cc3)CCOC2)n1 [(72)],89%
11,CC(NC(=O)C1(NC(=O)c2cncnc2)CC1)c1ccc(Nc2ccc(F)cc2C(F)(F)F)cn1 (stereo not drawn) [(45)],104%
12,O=C(O)c1ccc(Nc2ccc(CNC(=O)C3(NC(=O)c4cncnc4)CC3)nc2)c(C(F)(F)F)c1 [(195)],42%
13,Nc1cncc(C(=O)NC2(C(=O)NCc3ncc(Nc4c(F)cccc4C(F)(F)F)cc3F)CC2)c1 [(125)],108%
14,CN(c1ccc(CNC(=O)C2(NC(=O)c3cncnc3)CC2)cc1)c1ccccc1Cl [(110)],33%
15,O=C(N[C@@]1(C(=O)NCc2ccc(Nc3ccccc3C(F)(F)F)cc2)CCOC1)c1ccnc(Cl)c1 [(61)],97%
16,Nc1ccc(C(=O)N[C@@]2(C(=O)NCc3ccc(Nc4ccccc4C(F)(F)F)cc3)CCOC2)cn1 [(57)],111%
17,Nc1cncc(C(=O)NC2(C(=O)NCc3ccc(Nc4ccc(F)cc4C(F)(F)F)cn3)CC2)n1 [(144)],97%
18,CCNC(=O)NC1(C(=O)NCc2ccc(Nc3ccccc3C(F)(F)F)cc2)CC1 [(108)],101%
19,O=C(N[C@@]1(C(=O)NCc2ccc(Nc3c(F)cccc3C(F)(F)F)cn2)CCOC1)c1cncnc1 [(46)],88%
20,CNc1cncc(C(=O)NC2(C(=O)NCc3ccc(Nc4ccc(F)cc4C(F)(F)F)cn3)CC2)n1 [(168)],90%
21,N#Cc1ccc(Nc2ccc(CNC(=O)C3(NC(=O)c4cncnc4)CC3)nc2)c(C(F)(F)F)c1 [(197)],81%
22,Cn1ccnc1C(=O)NC1(C(=O)NCc2ccc(Nc3ccccc3C(F)(F)F)cc2)CC1 [(18)],67%
23,CC(C(=O)N[C@@]1(C(=O)NCc2ccc(Nc3ccccc3C(F)(F)F)cc2)CCOC1)C(F)(F)F (stereo partly drawn) [(91)],100%
24,COc1ccc(Nc2ccc(CNC(=O)C3(NC(=O)c4cncnc4)CC3)nc2)c(C(F)(F)F)c1 [(50)],115%
25,COc1ncc(C(=O)NC2(C(=O)NCc3ccc(Nc4ccc(F)cc4C#N)cc3)CC2)cn1 [(182)],99%
26,CC(NC(=O)C1(NC(=O)c2cncc(N)c2)CC1)c1ccc(Nc2c(F)cccc2C(F)(F)F)cn1 (stereo not drawn) [(124)],112%
27,CN(c1ccccc1)c1ccc(CNC(=O)C2(NC(=O)c3cncnc3)CC2)cc1 [(109)],27%
